Assay [1] concerns paclitaxel binding site on tubulin. Put plainly: Paclitaxel binding site inhibition assay ([3H]paclitaxel displacement from microtubules). Set-up: species or system bovine. To be noted: 4 μM test agent, 2 μM [3H]paclitaxel, microtubules from 2 μM tubulin and 20 μM dideoxyGTP. As to the method:
(§1) General. Tubulin without microtubule-associated proteins was prepared from fresh bovine brains[32] The normoisotopic and tritiated forms of paclitaxel and normoisotopic docetaxel were provided by the Drug Synthesis and Chemistry Branch, National Cancer Institute. (+)-Discodermolide was from Novartis Pharmaceutical Corporation. Ca^2+- and Mg^2+-free RPMI-1640 culture medium were from GIBCO/BRL-Life Technologies. Fetal bovine serum (FBS) was from Hyclone. Cell lines were obtained from American Type Culture Collection (Manassas, Va.).
Paclitaxel binding site inhibition assay. A stock solution of [^3H]paclitaxel (26.8 μM, 16.2 Ci/mmol), obtained from the NCI, was prepared in 37% (v/v) DMSO. The test agents were prepared in 25% (v/v) DMSO-0.75 M monosodium glutamate (prepared from a 2M stock solution adjusted to pH 6.6 with HCl). The radiolabeled paclitaxel and test agents, as indicated in terms of final concentrations, were mixed in equal volumes and warmed to 37° C. A reaction mixture (50 μL) containing 0.75 M monosodium glutamate, 4.0 μM tubulin, and 40 μM ddGTP (a non-hydrolyzable analog of GTP) was prepared and incubated at 37° C. for 30 min to preform microtubules. An equivalent volume of drug mixture with [^3H]paclitaxel was added to preformed polymer and incubated for 30 min at 37° C. Bound [^3H]paclitaxel was separated from free drug by centrifugation of the reaction mixtures at 14000 rpm for 20 min at room temperature. Non-specific binding was determined by addition of a 12-fold excess of docetaxel. Radioactive counts from the supernatant (50 μL) were determined by scintillation spectrometry. Bound [^3H]paclitaxel was calculated from the following: total paclitaxel added to each reaction mixture minus the paclitaxel present in the supernatant (free drug). The % bound values were normalized to the control values with no inhibitor added.

A further assay concerns tubulin. It counts as biochemical, bovine. The note with it: for MT stabilizing activity (%): tubulin assembly induced by test agent at 10 μM vs. 10 μM paclitaxel (100%), single determinations at 30° C. As to the method:
as §1
Tubulin Polymerization[32] Tubulin assembly was followed in a Beckman-Coulter 7400 spectrophotometer, equipped with an electronic Peltier temperature controller, reading absorbance (turbidity) at 350 nm. Reaction mixtures (0.25 mL final volume) contained tubulin (final concentration 10 μM; 1 mg/mL), monosodium glutamate (0.8 M from a stock solution adjusted to pH 6.6 with HCl), DMSO (final volume 4% v/v), and differing concentrations of test agent where indicated. Reaction mixtures without test agent were cooled to 0° C. and added to cuvettes held at 0.25-0.5° C. in the spectrophotometer. Test agent in DMSO was then rapidly mixed in the reaction mixture. Each run contained one positive control (paclitaxel, 10 μM final concentration) and one negative control (DMSO only). Baselines were established at 0.25-2.5° C. and temperature was rapidly raised to 30° C. (in approximately 1 min) and held there for 20 min.

The next assay concerns PC3 (prostate). Put plainly: Cell growth inhibition (MTS), PC3. The note with it: Homo sapiens, read-out: GI50 PC3 (prostate). It counts as cell-based. As to the method:
(§2) Cell Growth Inhibition[34] Cells were plated (500-2000 cells/well depending on the cell line) in 96-well microplates, allowed to attach and grow for 48 h, then treated with vehicle (4% DMSO, a concentration that allowed doubling times of 24 h or less) or test agent (50, 10, 2, 0.4 and 0.08 μM for the new agents; 0.001, 0.005, 0.010, 0.020 and 0.100 μM for paclitaxel and discodermolide) for the given times. One plate consisted of cells from each line used for a time zero cell number determination. The other plates in a given determination contained eight wells of control cells, eight wells of medium and each agent concentration tested in quadruplicate. Cell numbers were obtained spectrophotometrically (absorbance at 490 nm minus that at 630 nm) in a Dynamax plate reader after treatment with 3-(4,5-dimethylthiazol-2-yl)-5-(3-carboxymethoxyphenyl)-2-(4-sulfophenyl)-2H-tetrazolium (MTS) using phenazine methanesulfonate as the electron acceptor. After initial screening with the above 5-fold dilutions, fifty percent growth inhibitory concentration (GI50) values were determined for each agent by repeating the screen using 2-fold dilutions (five concentrations) centered on the initial estimated GI50 concentration, again in quadruplicate.

The test system of another assay is 2008 (ovarian). Put plainly: Cell growth inhibition (MTS), 2008. It counts as cell-based, human. The note with it: Homo sapiens. As to the method: as §2
A further assay relates to MDA-MB231 (breast). Put plainly: Cell growth inhibition (MTS), MDA-MB231. Type of assay: cell-based, human. The note with it: Homo sapiens. As to the method: as §2
Where [2] appears, read: 72 h, read-out: GI50 2008 (ovarian).
The mark [3] stands for this setting: MDA-MB-231, 72 h, read-out: GI50 MDA-MB231 (breast).

Where two headings read alike, the source gives them in different places. A value given as a limit tells only on which side of the number the result lay.

As a reminder, the GI50 is the concentration giving 50% growth inhibition. On to `C=C/C=C\[C@H](C)[C@H](OC(N)=O)[C@@H](C)[C@H](O)CC/C=C\[C@H](C)[C@H](O)[C@@H](C)/C=C\CC[C@@H]1OC(=O)[C@H](C)[C@@H](O)[C@@H]1C` [Compound 40, Carbamic acid, (1S,2S,3R,6Z,8S,9S,10S,11Z)-3,9-dihydroxy-14-[(2S,3S,4S,5R)-4-hydroxy-3,5-dimethyl-6-oxotetrahydropyran-2-yl]-2,8,10-trimethyl-1-[(1S,2Z)-1-methylpenta-2,4-dienyl]tetradeca-6,11-dienyl ester], for which, in assay [1], the “Displacement of [3H]paclitaxel (%)” value was determined as 21 ± 1%. Further, the “MT stabilizing activity (%)” value with tubulin is on record as 11%. Further, the GI50 was found to be 7500 ± 2000 nM in the assay on PC3 (prostate) (72 h), 5200 ± 1000 nM with 2008 (ovarian) (setting [2]) and 2100 ± 1800 nM in the assay with MDA-MB231 (breast) (setting [3]).

Turning to `C=C/C=C\[C@H](C)[C@H](OC(N)=O)[C@@H](C)[C@H](O)[C@@H](C)C/C(C)=C\[C@H](C)[C@@H](O)[C@@H](C)/C=C\[C@@H](O)C[C@@H]1OC(=O)[C@H](C)[C@@H](O)[C@H]1C` [discodermolide, (+)-discodermolide], the “Displacement of [3H]paclitaxel (%)” value in assay [1] is 64 ± 2%; in assay [1] (N = 6, means ± SD) it was 64 ± 2%. Besides, the “microtubule assembly compared with paclitaxel (in words)” value with tubulin (FIG. 6A, equivalent assembly at lower concentrations and temperatures) is “superior to paclitaxel”. The “properties of the induced polymer: speed of induction, resistance to cold-induced disassembly (in words)” value in the assay on tubulin (FIGS. 6A, 6C, 6D, analogs at somewhat lower potencies than discodermolide) is on record as “more resistant to cold-induced disassembly”. Also, the “MT stabilizing activity (%)” value in the assay on tubulin was more than 100%. The GI50 in the assay on PC3 (prostate) (72 h) was found to be 67 ± 4 nM; with 2008 (ovarian) (setting [2]), 72 ± 5 nM; in the assay on 2008 (ovarian) (72 h, read-out: GI50 2008 (ovary)) it was 72 ± 5 nM; with MDA-MB231 (breast) (setting [3]), 16 ± 3 nM; in the assay with MDA-MB231 (breast) (MDA-MB-231, 72 h, read-out: GI50 MDA-MB-231 (breast)), 16 ± 3 nM.

Regarding `CC(=O)O[C@H]1C(=O)[C@@]2(C)[C@H]([C@H](OC(=O)c3ccccc3)[C@]3(O)C[C@H](OC(=O)[C@H](O)[C@@H](NC(=O)c4ccccc4)c4ccccc4)C(C)=C1C3(C)C)[C@]1(OC(C)=O)CO[C@@H]1C[C@@H]2O` [paclitaxel, reference compound], in assay [1], the “Displacement of [3H]paclitaxel (%)” value was 37 ± 1%. Further, in the assay on tubulin, the “MT stabilizing activity (%)” value was 100%. Moreover, the GI50 with PC3 (prostate) (72 h continuous exposure, mean ± SD, N = 4) stood at 15 ± 2 nM; in the assay with 2008 (ovarian) (72 h continuous exposure, mean ± SD, N = 4, read-out: GI50 2008 (ovarian)) it was 9.2 ± 1.6 nM; in the assay on MDA-MB231 (breast) (MDA-MB-231, 72 h continuous exposure, mean ± SD, N = 4, read-out: GI50 MDA-MB231 (breast)) it was 2.4 ± 1.6 nM.

The values above are taken from patent publication US20060270862A1, “Analogs of discodermolide and dictyostatin-1, intermediates therefor and methods of synthesis thereof” (priority 2002, published 2006).
